Read-outs that look alike come from different tables or passages of the source.
Tests used:
Assay in all cases: biochemical
Aurora2 kinase = Aurora2 kinase (Homo sapiens, UniProt O14965)
CDK2/cyclin E = CDK2/cyclin E (Homo sapiens, UniProt P24941)
human FAK = human FAK (Homo sapiens, UniProt Q05397)
human KDR enzyme = human KDR enzyme (Homo sapiens, UniProt P35968)
human Tie2 = human Tie2 (Homo sapiens, UniProt Q02763)
human Tie2, sequence (Q02763 776-1124): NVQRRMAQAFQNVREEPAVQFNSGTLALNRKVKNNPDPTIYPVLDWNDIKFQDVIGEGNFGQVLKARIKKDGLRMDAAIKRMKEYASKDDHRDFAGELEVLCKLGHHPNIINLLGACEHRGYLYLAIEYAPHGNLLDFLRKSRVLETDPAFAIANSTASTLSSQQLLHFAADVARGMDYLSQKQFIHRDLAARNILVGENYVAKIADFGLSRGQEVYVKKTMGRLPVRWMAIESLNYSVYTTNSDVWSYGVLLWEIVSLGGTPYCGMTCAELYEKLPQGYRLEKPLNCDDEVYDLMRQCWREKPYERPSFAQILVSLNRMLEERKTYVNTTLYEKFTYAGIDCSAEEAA

human KDR enzyme, sequence (P35968 786-1356): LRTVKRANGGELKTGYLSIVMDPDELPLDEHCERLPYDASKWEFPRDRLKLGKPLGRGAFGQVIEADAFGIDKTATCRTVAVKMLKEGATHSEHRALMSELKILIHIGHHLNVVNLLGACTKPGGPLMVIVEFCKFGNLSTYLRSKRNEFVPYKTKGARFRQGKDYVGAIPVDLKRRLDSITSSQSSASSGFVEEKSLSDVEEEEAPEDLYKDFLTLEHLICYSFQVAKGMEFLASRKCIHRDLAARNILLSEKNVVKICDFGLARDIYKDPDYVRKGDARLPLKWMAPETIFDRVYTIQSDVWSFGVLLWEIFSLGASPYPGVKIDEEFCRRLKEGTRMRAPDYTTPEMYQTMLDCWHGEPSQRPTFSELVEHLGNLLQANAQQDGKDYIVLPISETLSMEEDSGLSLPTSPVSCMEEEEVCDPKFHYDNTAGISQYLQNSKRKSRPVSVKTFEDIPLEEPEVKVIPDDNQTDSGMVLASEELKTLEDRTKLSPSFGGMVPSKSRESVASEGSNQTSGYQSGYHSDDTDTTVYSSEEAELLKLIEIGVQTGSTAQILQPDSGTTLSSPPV
Aurora2 kinase, sequence (O14965 whole entry): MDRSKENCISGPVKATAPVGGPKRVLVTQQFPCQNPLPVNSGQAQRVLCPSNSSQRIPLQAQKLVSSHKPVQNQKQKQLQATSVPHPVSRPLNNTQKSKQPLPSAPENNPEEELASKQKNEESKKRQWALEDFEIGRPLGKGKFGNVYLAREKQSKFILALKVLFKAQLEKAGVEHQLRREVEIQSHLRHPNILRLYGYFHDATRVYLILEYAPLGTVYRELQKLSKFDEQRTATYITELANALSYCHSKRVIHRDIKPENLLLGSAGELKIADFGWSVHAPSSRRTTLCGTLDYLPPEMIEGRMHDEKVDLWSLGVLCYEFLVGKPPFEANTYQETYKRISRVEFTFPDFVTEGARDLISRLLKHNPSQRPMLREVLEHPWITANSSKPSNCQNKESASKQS
human FAK, sequence (Q05397 whole entry): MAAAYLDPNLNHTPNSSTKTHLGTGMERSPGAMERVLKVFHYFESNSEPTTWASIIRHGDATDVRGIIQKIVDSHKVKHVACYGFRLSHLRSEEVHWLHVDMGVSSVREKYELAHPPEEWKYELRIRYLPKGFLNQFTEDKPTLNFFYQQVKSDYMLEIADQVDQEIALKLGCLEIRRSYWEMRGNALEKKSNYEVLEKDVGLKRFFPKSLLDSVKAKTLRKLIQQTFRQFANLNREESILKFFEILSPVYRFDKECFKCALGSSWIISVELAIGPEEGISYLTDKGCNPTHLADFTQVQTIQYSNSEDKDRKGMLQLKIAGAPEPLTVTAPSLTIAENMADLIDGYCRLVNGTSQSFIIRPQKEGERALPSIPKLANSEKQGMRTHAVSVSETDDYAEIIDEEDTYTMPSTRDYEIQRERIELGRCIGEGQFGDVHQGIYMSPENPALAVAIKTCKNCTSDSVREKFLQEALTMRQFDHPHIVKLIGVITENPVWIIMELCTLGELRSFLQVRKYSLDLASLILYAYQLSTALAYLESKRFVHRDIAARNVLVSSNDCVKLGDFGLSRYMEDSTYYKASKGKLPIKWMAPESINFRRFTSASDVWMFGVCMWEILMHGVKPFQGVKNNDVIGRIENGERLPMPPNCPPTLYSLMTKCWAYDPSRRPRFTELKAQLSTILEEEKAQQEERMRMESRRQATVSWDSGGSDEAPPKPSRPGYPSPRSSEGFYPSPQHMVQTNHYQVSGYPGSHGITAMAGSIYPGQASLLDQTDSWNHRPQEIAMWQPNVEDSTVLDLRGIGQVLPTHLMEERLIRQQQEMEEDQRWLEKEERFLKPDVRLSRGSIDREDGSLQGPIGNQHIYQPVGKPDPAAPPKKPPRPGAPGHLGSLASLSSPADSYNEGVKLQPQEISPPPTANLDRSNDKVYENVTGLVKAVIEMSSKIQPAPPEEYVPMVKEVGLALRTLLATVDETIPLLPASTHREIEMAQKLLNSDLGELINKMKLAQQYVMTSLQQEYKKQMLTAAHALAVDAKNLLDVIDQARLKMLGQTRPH

## CP(=O)(Oc1ccc2[nH]nc(/C=C/c3ccccc3)c2c1)c1ccccc1 (stereo not drawn) [Example 01, Methylphenylphosphinic acid 3-((E)-styryl)-1H-indazol-5-yl ester]
Aurora2 kinase
  IC50: 0.037 µM
CDK2/cyclin E
  IC50: 0.234 µM
Human FAK
  IC50: 0.279 µM
Human KDR enzyme
  IC50: 0.158 µM
Human Tie2
  IC50: 0.04 µM

## O=P(Oc1ccc2[nH]nc(/C=C/c3ccccc3)c2c1)(c1ccccc1)c1ccccc1 [Example 02, Diphenylphosphinic acid 3-((E)-styryl)-1H-indazol-5-yl ester]
Aurora2 kinase
  IC50: 0.075 µM
CDK2/cyclin E
  IC50: 0.991 µM
Human FAK
  IC50: 3.53 µM
Human KDR enzyme
  IC50: 0.508 µM
Human Tie2
  IC50: 0.518 µM

## CP(=O)(Oc1ccc2[nH]nc(-c3cc4ccccc4[nH]3)c2c1)c1ccccc1 (stereo not drawn) [Example 03, Methylphenylphosphinic acid 3-(1H-indol-2-yl)-1H-indazol-5-yl ester]
Aurora2 kinase
  IC50: 0.02 µM
CDK2/cyclin E
  IC50: 0.142 µM
Human FAK
  IC50: 0.816 µM
Human KDR enzyme
  IC50: 0.31 µM
Human Tie2
  IC50: 0.003 µM

## O=P(Oc1ccc2[nH]nc(-c3cc4ccccc4[nH]3)c2c1)(c1ccccc1)c1ccccc1 [Example 04, Diphenylphosphinic acid 3-(1H-indol-2-yl)-1H-indazol-5-yl ester]
Aurora2 kinase
  IC50: 0.099 µM
CDK2/cyclin E
  IC50: 0.586 µM
Human FAK
  IC50: 2.9 µM
Human KDR enzyme
  IC50: 1.63 µM
Human Tie2
  IC50: 0.022 µM

## CP(=O)(Oc1ccc2[nH]nc(-c3cc4cc(OCCN5CCOCC5)ccc4[nH]3)c2c1)c1ccccc1 (stereo not drawn) [Example 05, Methylphenylphosphinic acid 3-[5-(2-morpholin-4-ylethoxy)-1H-indol-2-yl]-1H-indazol-5-yl ester]
Aurora2 kinase
  IC50: 0.015 µM
CDK2/cyclin E
  IC50: 0.394 µM
Human FAK
  IC50: 0.048 µM
Human KDR enzyme
  IC50: 0.141 µM
Human Tie2
  IC50: 0.011 µM

## COP(=O)(Oc1ccc2[nH]nc(-c3cc4ccccc4[nH]3)c2c1)c1ccccc1 (stereo not drawn) [Example 06, Phenylphosphonic acid 3-(1H-indol-2-yl)-1-H-indazol-5-yl ester methyl ester]
Aurora2 kinase
  IC50: 0.015 µM
CDK2/cyclin E
  IC50: 0.184 µM
Human FAK
  IC50: 0.74 µM
Human KDR enzyme
  IC50: 0.288 µM
Human Tie2
  IC50: 0.048 µM

## CC(C)OP(=O)(Oc1ccc2[nH]nc(-c3cc4ccccc4[nH]3)c2c1)c1ccccc1 (stereo not drawn) [Example 07, Phenylphosphonic acid 3-(1H-indol-2-yl)-1H-indazol-5-yl ester isopropyl ester]
Aurora2 kinase
  IC50: 0.024 µM
CDK2/cyclin E
  IC50: 0.959 µM
Human FAK
  IC50: 9.64 µM
Human KDR enzyme
  IC50: 2.05 µM
Human Tie2
  IC50: 0.162 µM

## O=P(OCc1ccccc1)(Oc1ccc2[nH]nc(-c3cc4ccccc4[nH]3)c2c1)c1ccccc1 (stereo not drawn) [Example 08, Phenylphosphonic acid 3-(1H-indol-2-yl)-1H-indazol-5-yl ester benzyl ester]
Aurora2 kinase
  IC50: 0.053 µM
CDK2/cyclin E
  IC50: 3.7 µM
Human FAK
  IC50: 8.3 µM
Human KDR enzyme
  IC50: 5.4 µM
Human Tie2
  IC50: 0.13 µM

## COP(=O)(Oc1ccc2[nH]ncc2c1)c1ccccc1 (stereo not drawn) [Example 10, Phenylphosphonic acid 1H-indazol-5-yl ester methyl ester]
Aurora2 kinase
  IC50: 9.13 µM
CDK2/cyclin E
  IC50: > 10 µM
Human FAK
  IC50: > 10 µM
Human Tie2
  IC50: > 10 µM

## COP(=O)(Oc1ccc2[nH]nc(-c3ccc[nH]3)c2c1)c1ccccc1 (stereo not drawn) [Example 11, Phenylphosphonic acid methyl ester 3-(1H-pyrrol-2-yl)-1H-indazol-5-yl ester]
Aurora2 kinase
  IC50: 0.09 µM
CDK2/cyclin E
  IC50: 0.199 µM
Human KDR enzyme
  IC50: 1.25 µM
Human Tie2
  IC50: 0.229 µM

## COP(=O)(OC)c1ccc2[nH]nc(/C=C/c3ccccc3)c2c1 [Example 12, [3-((E)-styryl)-1H-indazol-5-yl]phosphonic acid dimethyl ester]
Aurora2 kinase
  IC50: 0.14 µM
CDK2/cyclin E
  IC50: 0.29 µM
Human KDR enzyme
  IC50: 2.03 µM
Human Tie2
  IC50: 2.31 µM

## COP(=O)(O)c1ccc2[nH]nc(/C=C/c3ccccc3)c2c1 [Example 13, [3-((E)-styryl)-1H-indazol-5-yl]phosphonic acid monomethyl ester]
Aurora2 kinase
  IC50: 0.069 µM

## CCOP(=O)(OCC)c1ccc2[nH]nc(/C=C/c3ccccc3)c2c1 [Example 14, [3-((E)-styryl)-1H-indazol-5-yl]phosphonic acid diethyl ester]
Aurora2 kinase
  IC50: 0.076 µM
CDK2/cyclin E
  IC50: 0.78 µM
Human FAK
  IC50: 5.88 µM
Human KDR enzyme
  IC50: 1.66 µM
Human Tie2
  IC50: 0.29 µM

## COP(=O)(O)c1ccc2[nH]nc(-c3cc4ccccc4[nH]3)c2c1 [Example 15, [3-(1H-Indol-2-yl)-1H-indazol-5-yl]phosphonic acid monomethyl ester]
Aurora2 kinase
  IC50: 0.108 µM
CDK2/cyclin E
  IC50: 2.26 µM
Human FAK
  IC50: > 10 µM
Human KDR enzyme
  IC50: > 10 µM
Human Tie2
  IC50: 4.08 µM

## COP(=O)(O)c1ccc2[nH]nc(-c3cccs3)c2c1 [Example 16, (3-Thiophen-2-yl-1H-indazol-5-yl)phosphonic acid monomethyl ester]
Aurora2 kinase
  IC50: 2.2 µM
CDK2/cyclin E
  IC50: > 10 µM
Human FAK
  IC50: > 10 µM
Human KDR enzyme
  IC50: > 10 µM
Human Tie2
  IC50: 2.21 µM

## COP(=O)(O)c1ccc2[nH]nc(-c3ccc[nH]3)c2c1 [Example 17, [3-(1H-Pyrrol-2-yl)-1H-indazol-5-yl]phosphonic acid monomethyl ester]
Aurora2 kinase
  IC50: 0.77 µM

## CP(C)(=O)Oc1ccc2[nH]nc(-c3cc4ccccc4[nH]3)c2c1 [Example 18, Dimethylphosphinic acid 3-(1H-indol-2-yl)-1H-indazol-5-yl ester]
Aurora2 kinase
  IC50: 0.02 µM
CDK2/cyclin E
  IC50: 0.033 µM
Human FAK
  IC50: 7.57 µM
Human KDR enzyme
  IC50: 0.228 µM
Human Tie2
  IC50: 0.033 µM

## CCOP(=O)(Oc1ccc2[nH]nc(-c3cc4nc(OC)ccc4[nH]3)c2c1)c1ccccc1 (stereo not drawn) [Example 23, Phenylphosphonic acid ethyl ester 3-(5-methoxy-1H-pyrrolo[3,2-b]pyridin-2-yl)-1H-indazol-5-yl ester]
Aurora2 kinase
  IC50: 0.024 µM
CDK2/cyclin E
  IC50: 0.249 µM
Human KDR enzyme
  IC50: 0.442 µM
Human Tie2
  IC50: 0.03 µM

## COc1ccc2[nH]c(-c3n[nH]c4ccc(OP(=O)(OC)c5ccccc5)cc34)cc2n1 (stereo not drawn) [Example 24, phenylphosphonic acid 3-(5-methoxy-1H-pyrrolo[3,2-b]pyridin-2-yl)-1H-indazol-5-yl ester methyl ester]
Aurora2 kinase
  IC50: 0.024 µM
CDK2/cyclin E
  IC50: 0.142 µM
Human KDR enzyme
  IC50: 0.364 µM
Human Tie2
  IC50: 0.022 µM

## COP(=O)(Oc1ccc2[nH]nc(/C=C/c3ccccc3)c2c1)c1ccccc1 (stereo not drawn) [Example 25, Phenylphosphonic acid methyl ester 3-styryl-1H-indazol-5-yl ester]
Aurora2 kinase
  IC50: 0.041 µM
CDK2/cyclin E
  IC50: 0.578 µM

## COP(=O)(Oc1ccc2[nH]nc(-c3cc4ccccc4s3)c2c1)c1ccccc1 (stereo not drawn) [Example 26, Phenylphosphonic acid 3-benzo[b]thiophen-2-yl-1H-indazol-5-yl ester methyl ester]
Aurora2 kinase; read-out: Au2 IC50
  IC50: 0.73 µM
CDK2/cyclin E; read-out: CDK2 IC50
  IC50: 3.24 µM

## COP(=O)(Oc1ccc2[nH]nc(-c3cc4ccccc4s3)c2c1)c1ccccc1 (stereo not drawn) [Example 27, Phenylphosphonic acid 3-benzo[b]thiophen-2-yl-1H-indazol-5-yl ester methyl ester]
Aurora2 kinase
  IC50: 0.134 µM
CDK2/cyclin E
  IC50: 7.56 µM
Human KDR enzyme
  IC50: 1.88 µM
Human Tie2
  IC50: 0.353 µM

## COP(=O)(Oc1ccc2[nH]nc(-c3cc4ccccc4[nH]3)c2c1)C1CCCCC1 (stereo not drawn) [Example 32, Cyclohexylphosphonic acid 3-(1H-indol-2-yl)-1H-indazol-5-yl ester methyl ester]
Aurora2 kinase
  IC50: 0.026 µM
CDK2/cyclin E
  IC50: 1.5 µM
Human KDR enzyme
  IC50: 0.999 µM
Human Tie2
  IC50: 0.119 µM

## O=P(O)(Oc1ccc2[nH]nc(-c3cc4ccccc4[nH]3)c2c1)c1ccccc1 [Example 33, Phenylphosphonic acid mono-[3-(1H-indol-2-yl)-1H-indazol-5-yl]ester]
Aurora2 kinase
  IC50: 0.01 µM
CDK2/cyclin E
  IC50: 0.291 µM
Human FAK
  IC50: 0.316 µM
Human KDR enzyme
  IC50: 0.577 µM
Human Tie2
  IC50: 0.017 µM
